Where two headings read alike, the source gives them in different places.
How the values were obtained:
[1] = tested on: Tape Stripping-treated mouse; test: NMF production increasing action in Tape Stripping-treated mouse (confocal Raman); type: in vivo; conditions: 0.5% (w/v) in acetone applied to auricle once a day, one, five and seven days after Tape Stripping, FIGS. 5, 6
Protocol: As an experimental animal, an 8 to 10 weeks old female C57BL/6j mouse {SHIMIZU Laboratory Supplies Co., Ltd.} was used.
The operation of sticking a cellophane adhesive tape {NICHIBAN CO. , Ltd.} on the inner side of the left auricle of the mouse and peeling the tape off <Tape Stripping> was repeated five times to peel off the cuticle. Each 0.02 mL of acetone <Vehicle> or 0.5% (w/v) test substance was applied to the site having undergone the Tape Stripping once a day until the sixth day after the Tape Stripping. On Day 1 of the Tape Stripping, acetone <Vehicle> or a test substance was applied one hour after the Tape stripping. Compound A or monocitrate of Compound B was used as a test substance.
After one, five and seven days from the Tape Stripping, the total NMF amount of the inner side of the left auricle was determined by an in vivo confocal Raman spectrometer {model 3510, River Diagnostics, Inc.}.
A Raman spectrum in the region of 400 to 1800 cm^−1 was measured at an excitation wavelength of 785 nm at intervals of 1 micrometer from the surface of the inner side of the left auricle to the depth of 8 micrometers. A total NMF amount was quantified as an amount per keratin by using Skin Tools 2.0 {River Diagnostics, Inc.}. […] An average value of the total NMF amount was calculated for each measurement depth, and was shown as an individual value at each depth.

JAK = conditions: cited from earlier work
[2] = tested on: contact dermatitis model mouse; test: Suppression of ear swelling in contact dermatitis model mouse (DNFB); type: in vivo; conditions: oral 0.3 or 3 mg/mL at 10 mL/Kg once a day, 24 hours from initiation, FIG. 7
Protocol: Using a contact dermatitis model mouse against DNFB <Non-Patent Literature 10>, the ear swelling suppressing action of the JAK inhibitor was evaluated. As an experimental animal, an 8 weeks old female C57BL/6j mouse {SHIMIZU Laboratory Supplies Co., Ltd.} was used.
An abdominal region of the mouse was shaved, and each 0.025 mL of 0.5% (w/v) DNFB {2,4-Dinitrofluorobenzene, Sigma-Aldrich Corporation} diluted with AOO <mixed solution of acetone and olive oil in 4:1> was applied on the abdominal region . After five days, each 0.01 mL of 0.3% (w/v) DNFB diluted with AOO was applied on the front and back of both the auricles of the mouse . For five days from the date of sensitization, 0.5% (w/v) methylcellulose <MC> was administered once a day to the Vehicle group, and 0.3 mg/mL or 3 mg/mL of Compound A suspended in 0.5% (w/v) MC was orally administered to Compound A administration group in a dose of 10 mL/Kg. Each group included three animals. On the days of sensitization and initiation, 0.5% (w/v) MC or Compound A was orally administered one hour before sensitization and initiation.
Before initiation and after 24 hours from initiation, the thickness of each auricle was measured once with a thickness gauge {TECLOCK Corporation}, and an average of the variation from the thickness of each auricle before initiation was taken as an individual value.

dry skin model mouse [3] = test: TEWL in dry skin model mouse; type: in vivo; conditions: dry skin (A/E/W) model mouse, 0.5% (w/v) topical once a day, Days 0, 1, 3, 4 and 7; FIG. 12
Protocol: (§1) “Production of Dry Skin Model Mouse”
(§2) Using a dry skin model mouse <Non-Patent Literature 12>, the effect of improving the skin barrier function by a JAK inhibitor was evaluated. As an experimental animal, an 8 weeks old female C57BL/6JJmsSlc mouse {Japan SLC, Inc.} was used.
(§3) Absorbent cotton dipped in a mixed liquid of acetone and diethyl ether (1:1) was put on the surface of the inner side of the right or both auricles of the mouse for 30 seconds, and then absorbent cotton dipped in water was put on the same region for 30 seconds <hereinafter, abbreviated as an A/E/W treatment>. This treatment was conducted twice a day for seven days for each group to produce a dry skin model. The day on which the A/E/W treatment started was taken as Day 0. As a normal control group, a mouse not having undergone the A/E/W treatment was used. […]
A mouse having undergone the A/E/W treatment on its right auricle was used in the experiment. TEWL in the region where the A/E/W treatment had been conducted was measured directly before the A/E/W treatment on Days 0, 1, 3 and 4, and on Day 7 <Compound A administration group and Vehicle group; n=4, respectively>. TEWL was measured by using a water loss measuring device VAPOSCAN AS-VT100RS {ASAHIBIOMED} at room temperatures (23° C. to 26° C.) and a humidity of 40% to 60%. […]

dry skin model mouse [4] = test: NMF production in dry skin model mouse (confocal Raman); type: in vivo; conditions: dry skin (A/E/W) model mouse, 0.5% (w/v) topical once a day, Day 7; FIG. 11
Protocol: as §1, §2
as §3, with “model.” for “model. The day on which the A/E/W treatment started was taken as Day 0. As a normal control group, a mouse not having undergone the A/E/W treatment was used.”
A mouse having undergone the A/E/W treatment on its both auricles was used in the experiment. On Day 7, the total NMF amount of the stratum corneum of both the auricles of the mouse was determined by an in vivo confocal Raman spectrometer {model 3510, River Diagnostics, Inc.} <Compound A administration group and Vehicle group; n=3, respectively>.
A Raman spectrum in the region of 400 to 1800 cm^−1 was measured at an excitation wavelength of 785 nm at intervals of 1 micrometer from the surface of the inner side of the left auricle to the depth of 8 micrometers. A total NMF amount was quantified as an amount per keratin by using Skin Tools 2.0 {River Diagnostics, Inc.}. […]

[5] = tested on: three-dimensional culture skin model TESTSKIN LSE-high; test: Increase in protein amount of skin barrier-related protein in three-dimensional culture skin model (Western blotting); type: cell-based, human; conditions: 1000 nmol/L
Protocol: Experiment 4. Increase in Protein Amount of Skin Barrier-Related Protein by JAK Inhibitor in Three-Dimensional Culture Skin Model
As a three-dimensional cultured skin model, TESTSKIN LSE-high {TOYOBO CO., LTD., TMLSE-013A} was used <Non-Patent Literature 11>. According to the instruction manual of the TESTSKIN LSE-high, the Living Skin Equivalent <LSE> tissue on the Transwell was cultured in an assay medium included in the kit at 37° C. under 5% CO2 for 24 hours.
After removing the medium from the LSE tissue culture system, an assay medium containing Compound A in a final concentration of 1000 nmol/L was added in the presence or absence of human IL-4 and human IL-13 {R&D Systems, Inc.} in a final concentration of 20 ng/mL, respectively, and the LSE tissue was cultured at 37° C. under 5% CO2 for three days. The medium was replaced in the same manner as described above, and the LSE tissue was cultured at 37 ° C. under 5% CO2 for another two days. The skin layer of the LSE tissue was collected in a tube, and 0.1 mL of a 50 mmol/L Tris-HCl (pH 8.0) buffer containing 9 mol/L urea, 2% Triton X-100, protease inhibitor cocktail {Sigma-Aldrich Corporation, P8340} and phosphatase inhibitor cocktail {NACALAI TESQUE, INC., 07575-51} was added, and lysed by ultrasonication. To the tissue lysate, 0.08 mL of laemmli SDS-PAGE sample buffer containing 1.73 mmol/L 2-mercaptoethanol was added, and heated at 95 degrees Celsius for five minutes to thermally denature proteins.
The thermally denatured proteins (0.015 mg/lane) were separated by SDS-polyacrylamide electrophoresis <SDS-PAGE> on 4-12% NuPAGE Bis-Tris gel {Life technologies Corporation}, and filaggrin protein and loricrin protein were detected by Western blotting method. As an internal standard, GAPDH protein was detected. According to ordinary methods, the protein that was separated by SDS-PAGE was blotted on a PVDF membrane {GE Healthcare Ltd.}, and the PVDF membrane was blocked with 5% skim milk {NACALAI TESQUE, INC.}. […] The protein of interest was detected by light exposure to an autoradiography film, Amersham Hyperfilm ECL {GE Healthcare Ltd.} from the PVDF membrane, by using a chemiluminescent substrate {ECL Western Blotting Detection Reagents; GE Healthcare Ltd., RPN2232} according to the instruction manual.

dry skin model mouse [6] = test: Profilaggrin mRNA amount in dry skin model mouse (quantitative real-time PCR); type: in vivo; conditions: dry skin (A/E/W) model mouse, 0.5% (w/v) topical once a day, Days 0, 3 and 6, ratio to Day 0; FIG. 10
Protocol: Experiment 5. Increase in Profilaggrin mRNA Amount, Increase of NMF Production and Acceleration of Reduction in TEWL by JAK Inhibitor in Dry Skin Model Mouse
as §1, §2
as §3, with “0.” for “0. As a normal control group, a mouse not having undergone the A/E/W treatment was used.”
“Quantitative Real-Time PCR”
A mouse having undergone the A/E/W treatment on its right auricle was used in the experiment. […] The cDNA was analyzed by real-time PCR method <intercalator method> using Light Cycler 480 SYBR Green I Master {Roche Diagnostics K.K.} and Light Cycler 480 II {Roche Diagnostics K.K.}, and the Ct values of mouse profilaggrin and GAPDH were respectively determined. […] A relative mRNA amount of mouse profilaggrin was calculated by comparative Ct method. […]

[7] = in the absence of IL-4/IL-13, five days
[8] = in the presence of IL-4/IL-13 20 ng/mL, five days, FIG. 8

C[C@@H]1CCN(C(=O)CC#N)C[C@@H]1N(C)c1ncnc2[nH]ccc12 [monocitrate of Compound B, 3-{(3R,4R)-4-methyl-3-[methyl(7H-pyrrolo[2,3-d]pyrimidin-4-yl)amino]piperidin-1-yl}-3-oxopropanenitrile, reference compound]
total NMF amount (NMF production) [1]: NMF production increasing action

N#CC[C@H](C1CCCC1)n1cc(-c2ncnc3[nH]ccc23)cn1 [Compound C, (3R)-3-cyclopentyl-3-[4-(7H-pyrrolo[2,3-d]pyrimidin-4-yl)-1 H-pyrazol-1-yl]propanenitrile, reference compound]
JAK inhibition (JAK): known to inhibit JAK

C[C@H]1CN(C(=O)CC#N)[C@]12CCN(c1ncnc3[nH]ccc13)C2 [Compound A, 3-[(3S,4R)-3-methyl-6-(7H-pyrrolo[2,3-d]pyrimidin-4-yl)-1,6-diazaspiro[3.4]octan-1-yl]-3-oxopropanenitrile]
ear swelling (auricle thickness variation) [2]: suppression of ear swelling
TEWL (transepidermal water loss) (dry skin model mouse [3]): accelerating a reduction in TEWL
total NMF amount (NMF production) (dry skin model mouse [4]): NMF production increasing action
total NMF amount (NMF production) [1]: NMF production increasing action
filaggrin protein amount [5, 7]: increase
loricrin protein amount [5, 7]: increase
filaggrin protein amount [5, 8]: increase
loricrin protein amount [5, 8]: increase
profilaggrin mRNA amount (dry skin model mouse [6]): increase
JAK inhibition (JAK; stated as known): known to inhibit JAK

From patent US20240075037A1, “SKIN BARRIER FUNCTION IMPROVING AGENT” (Japan Tobacco Inc., priority 2013, published 2024)
